Measured values: US7524851B2 (Robert Bosch Gesellschaft fur Medizinische Forschung (RBMF), priority 2003, dated 2009)
“And” between values parts separate entries of the source, which are not always exact repeats. Equal values may be shown once. Read-outs that look alike come from different tables or passages of the source.

Key:
[1] = tested on: primary CD4+ T lymphocytes; assay: Mitochondrial membrane potential (JC-1, FACS); settings: 5 days
CD45RO memory T cells = assay: Annexin V/propidium iodide FACS apoptosis of stimulated CD45RO T cells; format: cell-based, human; settings: rIL-2, anti-CD3 plus anti-CD28; 5 days; more pronounced than in CD45RA T cells
Description: (§1) Isolation of primary CD4^+ T lymphocytes and lamina propria cells: Human peripheral blood mononuclear cells (PBMCs) from healthy volunteers (25-42 years of age) and patients with Crohn's disease (31-65 years of age) were isolated using Ficoll-Hypaque gradients. PBMCs were further purified using CD4 monoclonal antibodies attached to immunomagnetic beads according to the manufacturer's protocol, followed by treatment with Detachabead (Dynal; Oslo, Norway). In some cases, CD4^+ T cells were further separated by negative selection techniques using CD45RO or CD45RA monoclonal antibodies (PharMingen; Heidelberg, Germany) and immunomagnetic beads (Dynal). […]
(§2) For FACS analysis, apoptotic cells were detected by staining with annexin V and propidium iodide using the Annexin V FITC Apoptosis Detection Kit I (PharMingen) (Atreya et al., Nat. Med. 6:583-588 (2000)). […] To verify the results obtained with the annexin V/propidium iodide staining, analysis of T cells displaying DNA fragmentation was also determined by the Nicoletti technique, as described in (Nicoletti et al., J. Immunol. Methods 139:271-279 (1991)). […] Finally, cells were analyzed on a FACScan flow cytometer. […]

[2] = tested on: lamina propria lymphocytes; assay: Apoptosis of anti-CD2/CD28 activated lamina propria lymphocytes in vitro; format: cell-based, human; settings: ulcerative colitis; 5 days
Description: as §1, §2

caspase-9 = assay: Fluorometric protease assay, caspase-9 activity in T lymphocytes; format: cell-based, human; settings: CD3/CD28/rIL-2 stimulated T cells, 5 days
Description: Caspase-3 proteolytic activity was determined at day 5 by the caspase-3/CPP 32 fluorometric protease assay (Bio Source; Worcester, Mass., USA) according to the manufacturer's protocol. Caspase-8 and caspase-9 proteolytic activity were assessed in parallel by the corresponding fluorometric protease assays (Bio Source).

Ras = Ras activation assay (GTP-bound Ras, Raf RBD pull-down); format: cell-based, human; settings: primary T cells
Description: Cell lysates were incubated with 10 μg/ml PAK-1 agarose (Rac assays) or 10 μg/mg Raf RBD agarose (Ras assay) for 60 minutes (Rac assays) or 30 minutes (Ras assays) at 4° C. Agarose beads were collected by centrifugation followed by denaturation, boiling of the samples, and SDS-PAGE analysis.

CD4+ T cells = assay: Apoptosis by Nicoletti staining and transmission electron microscopy; format: cell-based, human; settings: 5 days
Description: For FACS analysis, apoptotic cells were detected by staining with annexin V and propidium iodide using the Annexin V FITC Apoptosis Detection Kit I (PharMingen) (Atreya et al., Nat. Med. 6:583-588 (2000)). In brief, T cells were washed twice in PBS, and the pellet was resuspended in annexin V binding buffer (PharMingen) at a concentration of 10^6 cells per milliliter. Annexin V FITC and propidium iodide were added (5 ill of each per 10^5 cells). Samples were gently mixed and incubated for 15 minutes at room temperature in the dark before FACS analysis. To verify the results obtained with the annexin V/propidium iodide staining, analysis of T cells displaying DNA fragmentation was also determined by the Nicoletti technique, as described in (Nicoletti et al., J. Immunol. Methods 139:271-279 (1991)). 10^6 T cells were fixed in 70% ethanol, washed once in HBSS, resuspended in 1 ml of HBSS and 1 ml of phosphate citric acid buffer (0.2 mol/l Na2PO4 and 0.004 mol/l citric acid [pH 7.8]), and incubated at room temperature for 5 minutes. After centrifugation, cells were resuspended in 1 ml of HBSS containing 20 μg/ml propidium iodide and 10 U DNase-free RNase A and incubated at room temperature for 30 minutes. Finally, cells were analyzed on a FACScan flow cytometer. Because of the fragmentation of DNA, apoptotic cells appear as hypodiploid in the DNA histogram.

Crohn's disease = settings: CD patients, long-term azathioprine
Description: The diagnosis of CD was confirmed in all patients by radiographic, endoscopic, and histopathologic parameters. Clinical outcomes such as the Crohn's disease activity index (CDAI), number of flares per year, and demand for anti-TNF antibody (e.g., infliximab) treatment were determined on clinical visits.

[3] = subgroup n=6 (low 6-TGN, low TGTP ratio)
[4] = subgroup n=13 (high 6-TGN and TGDP levels, ratio less than about 0.85)
[5] = subgroup n=13 (high 6-TGN and TGTP levels, ratio greater than about 0.85)
[6] = subgroup n=15 (low 6-TGN, high TGTP ratio)
[7] = subgroup n=21 (low 6-TGN levels)
[8] = subgroup n=26 (high 6-TGN levels)

`Sc1ncnc2nc[nH]c12` [6-MP, 6-mercaptopurine] was tested, and the “ΔΨm in primary T cells” value [1] was “loss of ΔΨm”, the “apoptosis of CD45RO memory T cells” value (CD45RO memory T cells) was “induced apoptosis” and the “apoptosis in anti-CD2 plus anti-CD28 activated lamina propria lymphocytes” value [2] was “capable of inducing apoptosis”. The caspase-9 activity (caspase-9) was “marked induction”, the “activation of Ras (GTP-bound Ras)” value (Ras) was “fail to modulate” and the “number of apoptotic CD4+ T cells” value (CD4+ T cells) was “marked increase”.

For `Cn1cnc([N+](=O)[O-])c1Sc1ncnc2nc[nH]c12` [azathioprine, Azathioprine], the “ΔΨm in primary T cells” value [1] was “loss of ΔΨm”, the “apoptosis of CD45RO memory T cells” value (CD45RO memory T cells) was “induced apoptosis” and the “CDAI (Crohn's disease activity index)” value (Crohn's disease; [3]) was 151 ± 55. For the same compound, the “Flares (number of flares per year)” value (Crohn's disease; [3]) was 1.4 ± 1.3, the “INF (infliximab use)” value (Crohn's disease; [3]) was 1.0 ± 0.6 and the “Response (clinical response rate)” value (Crohn's disease; [3]) was 0.5 ± 0.3. For the same compound, the “CDAI (Crohn's disease activity index)” value (Crohn's disease; [4]) was 277 ± 62, the “Flares (number of flares per year)” value (Crohn's disease; [4]) was 2.1 and 2.1 ± 0.9 and the “INF (infliximab use)” value (Crohn's disease; [4]) was 1.1 and 1.1 ± 0.5. For the same compound, the “Response (clinical response rate)” value (Crohn's disease; [4]) was 0.15 and 0.15 ± 0.1, the “CDAI (Crohn's disease activity index)” value (Crohn's disease; [5]) was 149 ± 35 and the “INF (infliximab use)” value (Crohn's disease; [5]) was 0.36 and 0.36 ± 0.2. The “CDAI (Crohn's disease activity index)” value (Crohn's disease; [6]) was 189 ± 28, the “Flares (number of flares per year)” value (Crohn's disease; [6]) was 1.9 ± 1 and the “INF (infliximab use)” value (Crohn's disease; [6]) was 1.1 ± 0.7. For the same compound, the “Response (clinical response rate)” value (Crohn's disease; [6]) was 0.1 ± 0.1, the “CDAI (Crohn's disease activity index)” value (Crohn's disease; [7]) was 176 ± 26 and the “Flares (number of flares per year)” value (Crohn's disease; [7]) was 2.1 ± 0.9. The “INF (infliximab use)” value (Crohn's disease; [7]) was 1.1 ± 0.5, the “Response (clinical response rate)” value (Crohn's disease; [7]) was 0.16 and 0.16 ± 0.1 and the “CDAI (Crohn's disease activity index)” value (Crohn's disease; [8]) was 206 ± 36. The “Flares (number of flares per year)” value (Crohn's disease; [8]) was 1.1 ± 0.6, the “INF (infliximab use)” value (Crohn's disease; [8]) was 0.7 ± 0.3 and the “activation of Ras (GTP-bound Ras)” value (Ras) was “virtually unaffected”. For the same compound, the “number of apoptotic CD4+ T cells” value (CD4+ T cells) was “marked increase”.
